Experiment: Additional benefits of taking betaine in people
Format: in vivo
Description: While the main benefit of a person or pet taking vitamin C and betaine in combination is the prevention/suppression of tumors, as mentioned before, additional benefits can be obtained depending upon the levels taken. Betaine is known to improve cardiovascular health, and can benefit people with fatty deposits in the liver. […] After only a few weeks of taking the betaine, cholesterol levels are reduced and the ability to lose weight is improved.

## C[N+](C)(C)CC(=O)[O-] [betaine, trimethylglycine]
After a few doses at about one and a half to about three grams per day, especially older people
  tendency to be light headed when getting up after prolonged squatting or kneeling: considerably lessened
After only a few weeks of taking the betaine
  cholesterol levels: reduced
